Assay results reported in PMC2913955, “Whole-cell fungal transformation of precursors into dyes” (Microbial Cell Factories, 2010).
Values after ≈ are worked out from the molar mass of the structure shown. Values joined by “and” are separate entries in the source; they are usually repeats but may differ in a detail not shown here. Identical values can stand only once. Marks after values point to notes of the source that are not given here.

Key:
[1] = Autoxidation of precursors on agar plates without actively growing mycelium (control samples); type: physicochemical; conditions: 1 mM precursor in GPA agar; for Precursors autoxidation: without mycelium; for autoxidation (in words): control samples without mycelium; as to Precursors autoxidation: key: - no; -/+ - slightly; + high; ++ very high
Method: (§1) Agar-plate screening of several different precursors, benzoic and naphthalene derivatives was performed using fungal biomass as a biocatalyst (Table 1). Among these precursors were chemicals consisting of amino-, hydroxy-, nitro-, sulfonic- and carboxy- substituents. The ability of the fungi to grow in the presence of the precursors and to transform the latter into coloured products was monitored during 14 days of the experiment. […] In order to check the autoxidation ability of the precursors, the appearance of their coloured products without the presence of actively growing mycelium was monitored (control samples).
(§2) The agar-plate screening test was performed using sterile 24-well tissue culture plates (16.2 mm in diameter). Each well contained 2.5 mL (± 0.2 mL) of sterile GPA medium with the addition of 2% agar and a precursor at a concentration of 1 mM. Each well was inoculated with one agar plug (3 mm in diameter) from the leading edge of colony, which had been maintained on MEA for at least 7 days at 25°C. The plates were incubated at 25°C, and the ability of the fungi to grow and transform the precursors into coloured products was monitored over the next 14 days.

[2] = Cyclic voltammetry of precursors (oxidation and reduction potentials); type: physicochemical; conditions: for Eo (oxidation potential) / Er (reduction potential): 1 mM precursor, 100 mM Na-tartrate buffer pH 4.5, graphite working electrode, Ag/AgCl reference; for oxidation and reduction peaks: pH 4.5, scan rates of 25 to 200 mV/s
Method: To find correlations between the degree of precursor transformation by fungi and its oxidation potential, cyclic voltammetry (CV) was done. All the tested compounds were characterized using CV at a graphite working electrode at pH 4.5.
Cyclic voltammetry of the tested precursors was performed using an MTM-Anko apparatus type M161 (Poland) equipped with a graphite working electrode, a platinum counter electrode, and an Ag/AgCl reference electrode. The precursors were dissolved using 100 mM Na-tartrate buffer, pH 4.5, to 1 mM final concentration. […] All potentials in this work were referred to the Ag/AgCl reference electrode.

Caco-2 cells = test: Neutral Red uptake assay (NRU) cytotoxicity; type: cell-based, human; conditions: Caco-2, precursor itself; for IC50: Homo sapiens
Method: The cytotoxicity of precursors and products was tested using the Neutral Red uptake assay (NRU) with Caco-2 cells (Table 5). The EU classifies a chemical to be not environmentally toxic if the IC50 is above 0.1 mg/mL, which was the case for the selected products as measured with the NRU test. […] In the case of the dyes obtained after transformation of AHBS and ANS by FF25, AB123, or TV7, all the samples had IC50's of more than 1 mg/mL and were essentially non-toxic. In the case of control cultures, growing without the addition of precursors, only the sample of TV7 was slightly toxic (IC50 = 0.85 mg/mL) while other control cultures (AB123, CU139, and FF25) had IC50's higher than one (Table 5).
The toxicity of precursors and products was evaluated using the Neutral Red uptake assay (NRU) with Caco-2 human intestinal cell-line as an in vitro test system. Samples of products were lyophilized and then dissolved in dimethyl sulfoxide (DMSO) to a stock solution concentration of 100 mg/mL. The cytotoxicity of dyes was expressed as the half-maximal inhibitory concentration (IC50 - mg/mL), where values higher than 1 represented low cytotoxicity, values within the range from 0.1 to 1 represented medium cytotoxicity, and values below 0.1 represented high cytotoxicity of samples [10]. Additionally, the cytotoxicity of the fungal liquid culture without precursors and products was checked as a control.

[3] = system: Trametes versicolor (TV7); test: Agar-plate screening test, transformation of precursors into coloured products; type: cell-based; conditions: strain TV7, 1 mM precursor
Method: as §1
(§3) The colour intensity of the products obtained during the biotransformation of the precursors by fungi was analyzed after 7 days of cultivation. This intensity was expressed by different numbers; the value 0 expressed a lack of colour and the values in the range from 1 to 4 expressed a rising intensity of colour.
as §2

Cerrena unicolor (CU139) = test: as above; type: cell-based; conditions: strain CU139, 1 mM precursor
Method: as §1, §3, §2

[4] = system: Abortiporus biennis (AB123); test: as above; type: cell-based; conditions: strain AB123, 1 mM precursor
Method: as §1, §3, §2

Fomes fomentarius (FF25) = test: as above; type: cell-based; conditions: strain FF25, 1 mM precursor
Method: as §1, §3, §2

SMILES	Precursors autoxidation [1]	Eo (oxidation potential) ([2]; scan rate 50 mV/s)	autoxidation (in words) [1]	Er (reduction potential) ([2]; scan rate 50 mV/s)	also measured
Nc1ccc(S(=O)(=O)O)c(N)c1 [2,4DABS, 2,4-diaminobenzenesulfonic acid]	-	818 mV			
O=Cc1ccccc1S(=O)(=O)[O-].[Na+] [Precursor 2FBSA, 2-formylbenzenesulfonic acid sodium salt]	-				oxidation and reduction peaks [2]: did not exhibit
Nc1ncccc1O [Precursor 2A3HP, 2-amino-3-hydroxypyridine]	-/+	647 mV	very slight autoxidation		IC50 (Caco-2 cells): 55 ± 28 µg/mL (≈ 499 µM)
Nc1ccccc1S(=O)(=O)O [Precursor A2SA, aniline-2-sulfonic acid]	-	1013 mV		-0.5 mV	
O=S(=O)(O)c1cc(O)c(O)c(S(=O)(=O)O)c1 [dHBdSA, 4,5-dihydroxy-1,3-benzene-disulfonic acid]	-				Eo (oxidation potential) ([2]; scan rate 25 mV/s): 914^b mV
Nc1c(O)cc(S(=O)(=O)O)c2ccccc12 [Precursor 4AHNS, 4-amino-3-hydroxy-1-naphthalenesulfonic acid]	++	251 mV	very rapid and very intensive autoxidation		
Nc1cc(S(=O)(=O)O)ccc1O [AHBS, 3-amino-4-hydroxybenzenesulfonic acid]	-	518 mV		-103 mV	IC50 (Caco-2 cells): > 1000 µg/mL
Nc1ccc(N)c(S(=O)(=O)O)c1 [2,5DABS, 2,5-diaminobenzenesulfonic acid]	-/+	433 mV	very slight autoxidation	-356 mV and -356^a mV	IC50 (Caco-2 cells): > 1000 µg/mL
Nc1cccc2c(S(=O)(=O)O)cccc12 [ANS, 5-amino-1-naphthalenesulfonic acid]	-	680 mV			IC50 (Caco-2 cells): > 1000 µg/mL
O.O=C(O)c1cc(S(=O)(=O)O)ccc1O [Precursor 5SSA, 5-sulfosalicylic acid hydrate]	-				oxidation and reduction peaks [2]: did not exhibit
Nc1cc(S(=O)(=O)O)cc([N+](=O)[O-])c1O [AHNBS, 3-amino-4-hydroxy-5-nitrobenzenesulfonic acid]	+	579 mV	very rapid and very intensive autoxidation	-92 mV	
Nc1ccc2cc(S(=O)(=O)O)cc(O)c2c1 [Precursor 6AHNS, 6-amino-4-hydroxy-2-naphthalenesulfonic acid]	-/+	499 mV	very slight autoxidation		
O=S(=O)([O-])c1ccc2cc(O)ccc2c1.[Na+] [HNSA, 6-hydroxy-2-naphthalenesulfonic acid sodium salt]	-	893 mV		-144 mV	
Nc1cccc(S(=O)(=O)O)c1 [Precursor 3ABS, 3-aminobenzenesulfonic acid]	-	968 mV		5.4^a mV	
Oc1ccccc1O [Cat, 1,2-dihydroxybenzene]	-	548 mV		285 mV	
Oc1ccc2ccc(O)cc2c1 [DHN, 2,7-dihydroxynaphtalene]	-/+	672 mV	very slight autoxidation		IC50 Precursor (Caco-2 cells): 107 ± 3.6 µg/mL (≈ 668 µM)
O.O.O.O.Oc1ccccc1-c1ccccc1.[Na] [Precursor 2PP, 2-phenylphenol sodium salt tetrahydrate]	-	790 mV			growth of mycelium in the presence of precursor [3]: unable to grow; growth of mycelium in the presence of precursor (Cerrena unicolor (CU139)): unable to grow; growth of mycelium in the presence of precursor [4]: unable to grow; growth of mycelium in the presence of precursor (Fomes fomentarius (FF25)): unable to grow
